Legend:
cartilage markers [1] = assay: Serum cartilage (arthritic) markers measured in the blood by ELISA in dogs fed different foods; assay type: in vivo
[2] = Body fat of dogs fed food containing lipoic acid; assay type: in vivo; details: dogs fed a food containing lipoic acid
Excerpt: These two markers are known to increase in dogs with osteoarthritis. […] In other words, dogs fed lipoic acid utilized available glucose more efficiently and shifted their metabolism towards mobilization of fat for energy use. […] The following tables show the difference in fat and weight as well as cartilage markers relative to treatment with lipoic acid.

cartilage markers [3] = assay: Serum cartilage (arthritic) markers measured in the blood by ELISA in dogs fed different foods; assay type: in vivo; details: for CPII: blood, d 0 as covariate
Experimental: Thirty (30) dogs were used to determine the effect of lipoic acid when compared to an AAFCO control food or a test food containing fish oil.
Biomarker Measurements: Serum cartilage markers were measured using ELISA based kits to determine concentrations of cartilage markers. Day 0 was used as a covariate in the analysis to adjust for baseline values.
Table 2 illustrates the change in blood level of arthritic markers in dogs after being fed a control diet compared with dogs fed a control plus fish oil and a control plus lipoic acid for 30 days and measured again at day 90.
Table 6 illustrates arthritic makers measured in blood samples for dogs after being fed a control diet compared with dogs fed a pet food including lipoic acid for 90 days.

canine bone cells = assay: Genes related to cartilage metabolism altered by lipoic acid in canine bone cells; assay type: in vivo, dogs; details: 90 days
Plasma metabolomics = assay type: in vivo; details: relative to control fed dogs
Experimental: Metabolomics: Plasma metabolites were analyzed and were compared as fold change relative to the control fed dogs.

[4] = test system: genes related to cartilage and energy metabolism; assay: Differential gene expression profile, whole blood RNA on canine 2 Affymetrix genechips; assay type: in vivo, dogs
Excerpt: A differential gene expression profile was studied between an AAFCO control food, a food containing fish oil, and a food containing lipoic acid. At a minimum of 1.3 fold change, a list of 1212 genes was generated compared to the AAFCO control and 1896 genes compared to the food containing fish oil at d 30.
RNA Extraction: Total RNAs were isolated from whole blood samples using the PAXgene RNA isolation kit. All measurements were done with the canine 2 Affymetrix genechips. For statistical analysis, all measurements were normalized with RMA. All analysis was preformed using Partek. An ANOVA t-test was performed for genes that are differentially expressed between the control and test foods were selected based on p-value cutoff 0.1, fold change >+/−1.3.
Table 4 illustrates the change in genes related to cartilage metabolism and energy metabolism in dogs after being fed a control diet compared with dogs fed a control plus lipoic acid.

[5] = vs a similar food without lipoic acid
[6] = lipoic acid vs. control, cartilage metabolism
[7] = lipoic acid vs. control, energy metabolism
[8] = lipoic acid vs. fish oil, cartilage metabolism
[9] = lipoic acid vs. fish oil, energy metabolism

## O=C(O)CCCC[C@@H]1CCSS1 (racemic) [Lipoic acid, lipoic acid]
Cartilage markers [1]; Day 30, without covariates
  Change CPII: −95.10
  Change CTXII: −5.60
Cartilage markers [1]; Day 90, without covariates
  Change CPII: −232.70
  Change CTXII: −0.59
[2]
  Body fat: lost fat
Cartilage markers [3]; Day 30
  CPII: 986.28 ng/mL
Cartilage markers [3]; Day 90
  CPII: 848.0 ng/mL
Cartilage markers [3]; after 90 days
  immune status markers: decreased
Cartilage markers [3]; after a 30 day treatment period
  arthritic markers (i.e., CPII and CTXII): reduction
Cartilage markers [3]; after a 90 day period
  arthritic markers (i.e., CPII and CTXII): greater reduction
Cartilage markers [3]; [5]
  carboxy-terminal crosslinked telopeptide fragment of type II collagen: greater decrease
  type II collagen C-propeptide: greater decrease
Canine bone cells
  Directional change MMP3 (1582602_at): down regulation and Down
  Directional change Prolyl 4-hydroxylase (1600479_at): up-regulation and up
  Directional change TIMP2 (1582708_at): up-regulation and up
Plasma metabolomics
  metabolite hydroxyproline in plasma: reduced
[4]; dogs fed lipoic acid
  PDK4 gene expression: increasing
  glucose transporters gene expression: upregulation
[4]; [6]
  Fold change 12-lipooxygenase: −1.3
  Fold change Chondroitan sulfate synthase 1: 1.4
  Fold change Facilitated glucose transporter 9: 1.4
  Fold change Prolyl hydroxylase alpha 1: 1.4
  Fold change Prolyl hydroxylase alpha 2: 1.3
  Fold change TIMP1: 1.3
  Fold change chondroitan sulfate proteoglycan 2 (veriscan): 1.5
  Fold change heparin sulfate N-deacetylase/N-sulfotransferase 2: 1.3
[4]; [7]
  Fold change 5′ AMP alpha 1: 1.3
  Fold change 5′ AMP beta 1: 1.3
  Fold change 5′ AMP gamma 2: 1.4
  Fold change Facilitated glucose transporter 1: 1.3
  Fold change Facilitated glucose transporter 6: 1.3
  Fold change Fatty acid desaturase 1: 1.9
  Fold change Hexokinase 3: 1.3
  Fold change PDK4: 1.4
  Fold change PPAR gamma: 1.3
  Fold change Succinyl CoA ligase alpha: 1.3
[4]; [8]
  Fold change 12-lipooxygenase: −1.3
  Fold change ADAMTS-2: −1.3
  Fold change ADAMTS-10: −1.3
  Fold change ADAMTS-16: −1.3
  Fold change Chondroitan sulfate synthase 1: 1.3
  Fold change Facilitated glucose transporter 9: 1.4
  Fold change Fibronectin 1: 1.4
  Fold change Lysyl hydroxylase: 1.3
  Fold change MMP2: −1.3
  Fold change MMP7: −1.3
  Fold change N-acetylgalactosaminyl-transferase 1: 1.3
  Fold change Transforming growth factor beta receptor 1: 1.3
  Fold change chondroitan sulfate proteoglycan 2 (veriscan): 1.5
[4]; [9]
  Fold change 5′ AMP alpha 1: 1.3
  Fold change 5′ AMP beta 1: 1.3
  Fold change 5′ AMP gamma 2: 1.5
  Fold change Facilitated glucose transporter 1: 1.3
  Fold change Facilitated glucose transporter 6: 1.4
  Fold change Hexokinase 3: 1.3
  Fold change PDK4: 1.6
  Fold change PPAR gamma: 1.3
  Fold change SREBP-1: −1.3
  Fold change Succinyl CoA ligase alpha: 1.3
  Fold change Succinyl CoA ligase beta: 1.3
  Fold change cAMP responsice element modulator: 1.3

— US9271957B2, “Methods of treating or preventing degenerative joint conditions, osteoarthritis, cartilage damage, and related disorders in companion animals” (HILL'S PET NUTRITION, INC., priority 2008, dated 2016)
